Source: patent publication US8795633B2, “Multiphoton in vivo flow cytometry method and device” (Purdue Research Foundation, priority 2005, dated 2014)
Values belong to the compound of their own block, whether it stands above or below them. *1 amine or outer side, *2 acyl side, *3 side chain or, on linkers, in order; H or OH if unused. Where a SMILES comes first, the peptide text is derived from it. Bridges are numbered along the chain shown (N, C = ends). [ ]: non-standard residue; d: D form. The star is where a group is joined. ξ: configuration not given here. X1 = O=C(O)CNC(=O)C(CCCCNC(=S)Nc1ccc(-c2c3ccc(=O)cc-3oc3cc(O)ccc23)c(C(=O)O)c1)N*; X2 = O=C(C1CCN[c+]2c(N[*:1])cc3cc(O)c(O)cc3n21)[*:2]; ξOrn(N(OH)CHO) = NC(CCCN(O)C=O)C(=O)O; Glutaryl = O=C(CCCC(=O)[*:2])[*:1]

Assays:
[1] = target: T1, cell surface folate receptors (Mus musculus, UniProt P35846); assay: Fluorescence measurement of binding to folate receptor positive M109 cells in culture
T1 construct: cell surface folate receptors on folate receptor positive M109 cells in culture; endogenous in cells; host or cells: M109 cells
T1 sequence (P35846 25-232): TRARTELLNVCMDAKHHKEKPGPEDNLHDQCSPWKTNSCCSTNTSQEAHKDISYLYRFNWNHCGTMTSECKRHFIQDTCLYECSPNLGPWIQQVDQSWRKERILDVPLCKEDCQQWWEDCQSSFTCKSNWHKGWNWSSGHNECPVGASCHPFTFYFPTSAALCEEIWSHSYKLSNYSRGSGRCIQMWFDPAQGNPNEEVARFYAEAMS
Description: Texas Red C2-maleimide (Molecular Probes, Eugene, Oreg.) was dissolved in dimethyl sulfoxide (DMSO) (1 mg in 200 μl DMSO). A 1.4 molar equivalent (1 mg) of Folate-Cys was added to the solution and mixed for 4 hours at room temperature. Folate-Cys-Texas Red (Folate-Texas Red) was purified by reverse-phase HPLC on a C18 column at a flow rate of 1 ml/min. The mobile phase, consisting of 10 mM NH4HCO3 buffer, pH 7.0 (eluent A) and acetonitrile (eluent B), was maintained at a 99:1 A:B ratio for the first five minutes and then changed to 70:30 A:B in a linear gradient over the next 30 minutes followed by a 1:99 A:B linear gradient over the last 15 minutes. Folate-Cys-Texas Red eluted as two isomer peaks at 44.5 and 45.8 minutes. The product was confirmed by mass spectroscopy and the biologic activity was confirmed by fluorescence measurement of its binding to cell surface folate receptors on folate receptor positive M109 cells in culture.

[2] = tested on: Pseudomonas aeruginosa; assay: FACS analysis of pyoverdine peptide fluorescein binding and competition; conditions: 0.1 μM conjugate; 100-fold excess free pyoverdine
Description: The x-axis indicates fluorescence intensity.
(§1) This procedure applies to Examples 25-27. For cell sorting assays, iron limited conditions were maintained by addition of dipyridyl to the culture (final concentration of […]). Cells were grown to mid-log phase (NB or LB broth), the siderophore conjugates added to 10-20 million CFU of bacterial cells to a final siderophore conjugate concentration of 2-3 uM (total volume=11 mL), and incubated for a period of 30 minutes. Competition was performed by adding a 100-fold excess of desferrioxamine (Yersinia) or pyoverdine PaA (Pseudomonas) to the cells 15 minutes prior to incubation with the siderophore conjugates. Fluorescently activated cell sorting (FACS) was performed on a FACS Caliber (BD Bio systems, Franklin Lakes, N.J.) cell sorter with both the forward scatter and side scatter in the log mode per manufactures guidelines for analyzing bacteria. Bacteria samples were diluted with PBS to achieve 200-400 counts per second.
Cell studies using FACS analysis and Pseudomonas aeruginosa were performed essentially as described under Example 25 (see FIG. 10) to assess binding and competition of this molecule (concentrations ranged from 1 μM to 1 nM).

[3] = tested on: Yersinia enterocolitica; assay: FACS analysis of desferrioxamine fluorescein binding and competition
Description: as §1
In this case, fluorescence shift indicates binding of the fluorescein conjugate to the siderophore receptor on the bacterial surface; whereas, adding excess non-labeled ligand (competition) reduces the number of free binding sites prior to conjugate incubation. […] It is interesting to note that this compound was iron unloaded and thus consistent with unloaded siderophore binding reported by Schalk et al., Mol. Microbiol. 39: 351-360 (2001).

biologic activity (binding to cell surface folate receptors) [1]: confirmed
Compound: Nc1nc2ncc(CNc3ccc(C(=O)NC(CCC(=O)NC(CSC4CC(=O)N(CCNS(=O)(=O)c5ccc(C6=c7cc8c9c(c7Oc7c6cc6c%10c7CCCN%10CCC6)CCC[N+]=9CCC8)c(S(=O)(=O)[O-])c5)C4=O)C(=O)O)C(=O)O)cc3)nc2c(=O)[nH]1 (stereo not shown) [Folate-Cys-Texas Red]

Compound: CC(O)C1NC(=O)C(CCCN(O)C=O)NC(=O)C(NC(=O)C(CCCN(O)C=O)NC(=O)C(CO)NC(=O)C(CCCNC(=N)N)NC(=O)C(CO)NC(=O)C2CCN[c+]3c(NC(=O)CCCC(=O)NC(CCC(=O)O)C(=O)NC(CCCCNC(=S)Nc4ccc(-c5c6ccc(=O)cc-6oc6cc(O)ccc56)c(C(=O)O)c4)C(=O)NCC(=O)O)cc4cc(O)c(O)cc4n32)CCCCNC(=O)C(C(C)O)NC1=O (stereo not shown) [Pyoverdine Peptide Fluorescein] ({X1-Glu-Glutaryl}-[X2]SRS[ξOrn(N(OH)CHO)]K[ξOrn(N(OH)CHO)]TT; lactam 6-C; configuration not given here)
binding and competition [2]: competition using free pyoverdine was detected

Compound: CC(=O)N(O)CCCCCNC(=O)CCC(=O)NCCCCCNC(=O)CCC(=O)N(O)CCCCCNC(=S)Nc1ccc(-c2c3ccc(=O)cc-3oc3cc(O)ccc23)c(C(=O)O)c1 [desferrioxamine fluorescein]
shift in fluorescence intensity with competition ([3]; competition with a 100-fold excess of desferrioxamine): 15%
shift in fluorescence intensity ([3]; non-competed, 2 μM conjugate concentration, non-incubated control 1%): ~50%
